Tests used:
[1] = German Published Application DAS No. 2,559,711; cited from earlier work
[2] = Narcosis-prolonging action in rats (chloral hydrate narcosis), sedative action; details: rat, in vivo, po
Description: (§1) The time at which the righting reflex ceases to function is measured.
(§2) The reference substances were the conventional anti-hypertensive agents clonidine and benclonidine.
(§3) An undesired side-effect of clonidine is the central-suppressive (sedative) action, which was tested using, as a model, the prolongation of chloral hydrate narcosis.

[3] = system: chloral hydrate narcosis in Sprague-Dawley rats; assay: as above; details: for Narcosis-prolonging effect R.E. (relative effectiveness): rats, oral administration, relative to clonidine = 1.00
Description: as §1, §2, §3

[4] = compared with clonidine; DAS No. 2,559,711; cited from earlier work
[5] = DAS No. 2,559,711; cited from earlier work
Acute toxicity (LD 50) = details: rat, in vivo, po
Description: To determine the acute toxicity (LD 50), the compounds are administered orally to groups of 10 male Sprague-Dawley rats each weighing 150-320 g. The period of observation is 1 week.

[6] = system: spontaneously hypertonic Okamoto rats (SH rats); assay: Anti-hypertensive action, systolic blood pressure in spontaneously hypertonic rats, oral; format: in vivo, rat (male spontaneously hypertonic Okamoto rats); details: oral administration; for ED20: Rattus norvegicus, dose lowering systolic pressure by 20%, 2 h after administration, read-out: Anti-hypertensive effect ED 20%; for Anti-hypertensive effect R.E. (relative effectiveness): relative to clonidine = 1.00
Description: The compounds are administered orally to groups of 4-8 male spontaneously hypertonic Okamoto rats (SH rats). Before, and two hours after, the administration, the systolic blood pressure is measured on the tail of the rat by means of a piezoelectric sensor.
The ED 20% is determined, from the dose-effect relationship and taking into account the values found with untreated control animals, as the dose which lowers the systolic pressure by 20%.

With `O=C(c1ccccc1)N1CCN=C1Nc1c(Cl)cccc1Cl` [Benclonidine, 1-benzoyl-2-(2',6'-dichlorophenylamino)-2-imidazoline] as the compound, how does the “blood pressure-reducing properties” value [1] read?
The value was “exhibits blood pressure-reducing properties”.

What about the ED50 [2] of the same compound?
Its ED50 is 0.948 mg/kg.

What about the selectivity ratio [2] of the same compound?
The selectivity ratio was 1.13.

What about the “Narcosis-prolonging effect R.E. (relative effectiveness)” value [3] of the same compound?
Its value is 0.06.

And the “sedative side-effects” value [4]?
The value was “lesser sedative side-effects than the parent compound clonidine”.

What about the “absorption on oral administration” value [5] of the same compound?
Its value is “efficiently absorbed on oral administration”.

And the LD50 at 168 h (Acute toxicity (LD 50))?
The LD50 at 168 h was 68.1 mg/kg.

And the ED20 [6]?
Its ED20 is 0.836 mg/kg.

What about the “Anti-hypertensive effect R.E. (relative effectiveness)” value [6] of the same compound?
Its value is 0.10.

With `Clc1cccc(Cl)c1NC1=NCCN1` [Clonidine, 2-(2',6'-dichlorophenylamino)-2-imidazoline] as the compound, how does the “blood pressure-reducing properties” value [1] read?
The value was “exhibits blood pressure-reducing properties”.

And the ED50 [2]?
The ED50 was 0.0565 mg/kg.

What about the selectivity ratio [2] of the same compound?
The selectivity ratio was 0.68.

And the “Narcosis-prolonging effect R.E. (relative effectiveness)” value [3]?
Its value is 1.00.

What about the LD50 at 168 h (Acute toxicity (LD 50)) of the same compound?
The LD50 at 168 h was 67.3 mg/kg.

And the ED20 [6]?
Its ED20 is 0.0829 mg/kg.

And the “Anti-hypertensive effect R.E. (relative effectiveness)” value [6]?
The value was 1.00.

For `O=C(c1cccnc1)N1CCN=C1Nc1c(Cl)cccc1Cl` [Example 1, 1-nicotinoyl-2-(2',6'-dichlorophenylamino)-2-imidazoline], which ED50 [2] is on record?
Its ED50 is 0.1 mg/kg.

And the selectivity ratio [2]?
Its selectivity ratio is 1.27.

And the “Narcosis-prolonging effect R.E. (relative effectiveness)” value [3]?
Its value is 0.57.

And the LD50 at 168 h (Acute toxicity (LD 50))?
The LD50 at 168 h was 80 mg/kg.

What about the ED20 [6] of the same compound?
Its ED20 is 0.0786 mg/kg.

And the “Anti-hypertensive effect R.E. (relative effectiveness)” value [6]?
Its value is 1.05.

With `O=C(c1ccc2ccccc2n1)N1CCN=C1Nc1c(Cl)cccc1Cl` [Example 45, 1-(quinolin-2-oyl)-2-(2',6'-dichlorophenylamino)-2-imidazoline] as the compound, how does the ED50 [2] read?
The ED50 was 0.464 mg/kg.

What about the selectivity ratio [2] of the same compound?
Its selectivity ratio is 5.42.

And the “ratio of sedative to anti-hypertensive doses compared with clonidine or benclonidine” value ([3]; compared with clonidine or benclonidine)?
Its value is “substantially more advantageous”.

And the “Narcosis-prolonging effect R.E. (relative effectiveness)” value [3]?
Its value is 0.12.

What about the LD50 at 168 h (Acute toxicity (LD 50)) of the same compound?
The LD50 at 168 h was 44 mg/kg.

And the ED20 [6]?
The ED20 was 0.0856 mg/kg.

What about the “Anti-hypertensive effect R.E. (relative effectiveness)” value [6] of the same compound?
The value was 0.97.
